Source: US20090156473A1, “PHARMACEUTICAL COMPOSITION FOR THE TREATMENT OF VIRAL INFECTIONS AND/OR TUMOR DISEASES BY INHIBITING PROTEIN FOLDING AND PROTEIN BREAKDOWN” (Virologik GmbH, priority 2006, published 2009)

Legend:
X4-trophic HI viruses = test: HLAC model (human tonsil cells) infected with X4-trophic HI viruses, RT assay of supernatants; type: cell-based, HIV-1; settings: for virus replication of X4-trophic HI viruses (RT data): tonsil A; for X4-trophic HIV replication (RT data): tonsil B
Procedure: Human tonsils were macerated and transferred into 96-well plates. After one day of incubation, the cells were infected with X4-trophic HI viruses, mixed with the corresponding inhibitors and washed on the following day. These and also the subsequent steps are described in detail under Example 4c-d. At each kinetic point, 150 μL of medium was removed and stored at −80° C. until measurement at RT. The medium that was again added contained the inhibitor concentrations necessary for the special preparation.
After 15 days, the proportion of functional HI viruses formed was determined by means of RT assays (see Example 4e) of the stored supernatants.
Tonsil cells were cultivated in RPMI 1640 with 15% (V/V) fetal calf serum, 2 mM L-glutamine, 100 U/mL penicillin, 100 μg/mL streptomycin, 2.5 μg/mL Fungizone, 1 mM sodium pyrovate, 1% MEM non-essential amino acid solution and 50 μg/mL gentanamycin (“tonsil medium”).
To produce virus preparations, plasmid DNA of molecular HIV-1 DNA was transfected into HeLa cells using the calcium phosphate precipitation method. For this purpose, confluent cultures of HeLa cells (5×10^6 cells) were incubated with 25 μg of plasmid DNA in calcium phosphate crystals, produced according to a method of Graham and van der Eb (1973), then subjected to glycerol shock according to Gorman et al. (1982). To obtain concentrated virus preparations, the cell culture supernatants were harvested two days after transfection. Thereafter the cells as well as their constituents were separated by centrifugation (1000 g, 5 minutes, 4° C.) and filtration (0.45 μm pore size). Virus particles were pelleted by ultracentrifugation (Beckman SW55 rotor, 1.5 hours, 35,000 rpm, 10° C.) and then resuspended in 1 mL of DMEM medium. The virus preparations were sterilized by filtration (0.45 μm pore size) and were frozen in portions (−80° C.). Individual virus preparations were standardized by determination of the reverse transcriptase activity, specifically on the basis of an already described test (Willey et al., 1988), using [32P]-TTP incorporation into an oligo(dT)-poly(A) template.
The tonsil tissue was washed in PBS, then cleaned of blood clots and cut into pieces measuring 1 to 2 mm^2 with the scalpel. Individual cells were obtained by mechanical pressing through a filter gauze. Following centrifugation of the isolated cells (5 minutes, 1200 rpm), the cells were counted, seeded into 96-well plates and incubated overnight at 37° C. and 5% CO2. Infection of the cells was achieved by addition of 10 ng of X4-trophic HIV stocks and simultaneous application of the corresponding inhibitor concentrations. On the following day, 50 μL of supernatant was withdrawn (“1 dpi”) and stored at −80° C. Thereupon the cells were centrifuged (5 minutes, 1200 rpm) and a further 50 μL of supernatant was withdrawn. Following resuspension of the cells in 100 μL of tonsil medium, this washing step was repeated two times. Tonsil medium with the corresponding inhibitor concentrations was added and then the cells were re-incubated at 37° C. and 5% CO2. On days 3, 6, 9 and 12, 150 μL of medium was withdrawn and stored at −80° C., and 150 μL of medium with the corresponding inhibitor concentrations was added. On day 15, only 150 μL of supernatant was removed and stored at −80° C., after which the cells were discarded.
The tonsil supernatants stored at −80° C. were assayed by determination of the reverse transcriptase activity, specifically on the basis of an already described test (Willey et al., 1988), using [32P]-TTP incorporation into an oligo(dT)-poly(A) template.

[1] = tested on: HeLaSS6 cells transfected with subgenomic HIV-1 expression vector pNLenv1; test: Time kinetics of Gag processing and virus release, Western blot of cell and virus fractions; type: cell-based; settings: 100 nM 17-AAG vs inhibitor-free medium
Procedure: Time kinetics were studied for biochemical analysis of the influence of 17-AAG on the kinetics of Gag processing and virus release. The experimental details of cultivation, transfection, media exchange and time kinetics are reported in Example 4a/b. For this purpose there were used cultures of HeLaSS6 cells that had been transfected with pNLenv1 (Schubert et al., 1995). Following incubation in 17-AAG-containing medium (100 nM 17-AAG) or inhibitor-free medium, the kinetic studies were begun after distinct washing steps and aliquoting of the preparations. Aliquot cell cultures were taken at each time and separated into cell, virus and cell-culture supernatant fractions by centrifugation. The HIV proteins were separated by SDS PAGE, transferred onto PVDF membranes and then made visible on x-ray films by antibody-mediated chemiluminescence.
HeLa cells (ATCC CCL2) were cultivated in Dulbeccos' modified Eagle's medium (DMEM) with 10% fetal calf serum, 2 mM L-glutamine, 100 U/mL penicillin and 100 μg/mL streptomycin.
HeLa cells (ATCC CCL2) were transfected using a mixture of pNLΔenv and lipofectamine2000 in OPTI-MEM. A media exchange was undertaken after 8 hours of incubation at 37° C. and 5% CO2. […] The HIV-specific and cell-specific proteins were detected via specific antibodies (to Hsp70; Hsp90; p24; PR55; β-actin). […]

| SMILES | virus replication of X4-trophic HI viruses (RT data) (X4-trophic HI viruses; single inhibitor at 1 nM) | X4-trophic HIV replication (RT data) (X4-trophic HI viruses; single inhibitor at 1 nM) | virus replication of X4-trophic HI viruses in the HLAC model (X4-trophic HI viruses; summary statement of Example 3, RT assays after 15 days) | virus replication of X4-trophic HI viruses (RT data) (X4-trophic HI viruses; 10 nM 17-AAG alone) | X4-trophic HIV replication (RT data) (X4-trophic HI viruses; 10 nM 17-AAG alone) | Gag processing in the virus fraction [1] | Hsp70 expression in the cell fraction [1] |
| --- | --- | --- | --- | --- | --- | --- | --- |
| CC(C)C[C@H](NC(=O)[C@H](Cc1ccccc1)NC(=O)c1cnccn1)B(O)O [PS341] | not clearly influenced | did not exhibit any influence |  |  |  |  |  |
| C=CCNC1=C2C[C@@H](C)C[C@H](OC)[C@H](O)[C@@H](C)/C=C(\C)[C@H](OC(N)=O)[C@@H](OC)/C=C\C=C(/C)C(=O)NC(=CC1=O)C2=O [17-AAG] | not clearly influenced | did not exhibit any influence | inhibits the virus replication | not clearly influenced | distinct reduction of virus replication | reduced Gag processing | intensified Hsp70 expression |
